Experiment [1] concerns Kit225 T cells with STAT-dependent luciferase reporter stimulated with human recombinant IFNα. The experiment in a line: Kit225 T cell assay, IFNα stimulated STAT-dependent luciferase reporter. The experiment is classed as cell-based. Here is the method: (§1) Kit225 T cells with a stably-integrated STAT-dependent luciferase reporter were plated in RPMI (Gibco) containing 10% heat-inactivated FBS (Gibco) and 100 U/mL PenStrep (Gibco). The cells were then stimulated with either 20 ng/mL human recombinant IL-23 or 200 U/mL human recombinant IFNα (PBL InterferonSource) for 5-6 hours. Luciferase expression was measured using the STEADY-GLO® Luciferase Assay System (Promega) according to the manufacturer's instructions.
A general note: In a reporter assay the amount or activity of a reporter protein is the signal.

Experiment [2] has as its system Kit225 T cells with STAT-dependent luciferase reporter stimulated with human recombinant IL-23. The experiment in a line: Kit225 T cell assay, IL-23 stimulated STAT-dependent luciferase reporter. The experiment is classed as cell-based. As for the experimental part:
as §1

Experiment [3] has as its target T1, recombinantly expressed His-tagged protein corresponding to amino acids 575-869 of human Tyk2 (Homo sapiens, UniProt P29597).
T1 construct: made in house
The experiment in a line: Probe displacement assay (scintillation proximity, radiolabeled probe). The experiment is classed as binding. The following applies: 2.5 nM Tyk2 (575-869), 40 nM [3H] probe, 30 minutes at room temperature. Here is the method:
The preparation of radiolabeled probe, (R)—N-(1-(3-(8-methyl-5-(methylamino)-8H-imidazo[4,5-d]thiazolo[5,4-b]pyridin-2-yl)phenyl)ethyl)-2-([^3H]methylsulfonyl)benzamide, was performed as described below: […]
A general note: In a scintillation proximity assay essentially only radioactivity close to the scintillant gives light.

Like-named read-outs stand apart in the source and are kept apart here.

T1 sequence (P29597 with tags, fused parts or gaps): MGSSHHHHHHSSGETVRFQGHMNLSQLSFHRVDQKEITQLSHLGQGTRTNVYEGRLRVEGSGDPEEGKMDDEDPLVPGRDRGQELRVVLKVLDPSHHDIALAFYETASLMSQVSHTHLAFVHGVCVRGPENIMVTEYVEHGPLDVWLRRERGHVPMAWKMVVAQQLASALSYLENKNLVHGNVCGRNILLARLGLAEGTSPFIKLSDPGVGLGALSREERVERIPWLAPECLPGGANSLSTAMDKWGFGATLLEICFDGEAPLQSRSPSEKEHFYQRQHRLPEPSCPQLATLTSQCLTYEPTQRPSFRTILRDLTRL

As to `CNC(=O)c1cnc(NC(=O)C2CC2)cc1Nc1cccc(-c2ccnn2C)c1OC` [Example 33], the IC50 in experiment [1] (KIT225, 200 U/mL human recombinant IFNα, 5-6 hours, luciferase, read-out: IFNa Kit225 Reporter, LE (IC50)) was 0.09 µM; in experiment [2] (KIT225, 20 ng/mL human recombinant IL-23, 5-6 hours, luciferase, read-out: IL-23 Kit225 Reporter, LE (IC50)), 0.11 µM. For the same compound, the EC50 in experiment [3] worked out at 5.34 nM.

For the compound `[2H]C([2H])([2H])NC(=O)c1cnc(NC(=O)C2CC2)cc1Nc1cccc(-c2ccn(CC(F)(F)F)n2)c1OC` [Example 39], the IC50 in experiment [1] (Homo sapiens, KIT225, read-out: IFNa Kit225 Reporter, LE (IC50, μM)) was 0.16 µM; in experiment [2] (Homo sapiens, KIT225, read-out: IL-23 Kit225 Reporter, LE (IC50, μM)) it was 0.08 µM. The EC50 in experiment [3] was determined as 20 nM.

For orientation: IC50 means the concentration that gives 50% inhibition. What is called EC50 is the concentration at which the effect is half-maximal.

Source of the values: US9987266B2, “Alkyl-amide-substituted pyridyl compounds useful as modulators of IL-12, IL-23 and/or IFNα responses” (BRISTOL-MYERS SQUIBB COMPANY, priority 2013, dated 2018).
